In US20230183239A1, “ECTONUCLEOTIDE PYROPHOSPHATASE-PHOSPHODIESTERASE 1 (ENPP-1) INHIBITORS AND USES THEREOF” (AbbVie Inc., priority 2017, published 2023):

Tests used:
Assay type in all cases: biochemical
[1] = target: T1, ENPP1 (Homo sapiens, UniProt P22413); test: ENPP1 enzyme assay with AMP-pNP substrate (hydrolysis of ATP analog)
T1 sequence (P22413 1-925): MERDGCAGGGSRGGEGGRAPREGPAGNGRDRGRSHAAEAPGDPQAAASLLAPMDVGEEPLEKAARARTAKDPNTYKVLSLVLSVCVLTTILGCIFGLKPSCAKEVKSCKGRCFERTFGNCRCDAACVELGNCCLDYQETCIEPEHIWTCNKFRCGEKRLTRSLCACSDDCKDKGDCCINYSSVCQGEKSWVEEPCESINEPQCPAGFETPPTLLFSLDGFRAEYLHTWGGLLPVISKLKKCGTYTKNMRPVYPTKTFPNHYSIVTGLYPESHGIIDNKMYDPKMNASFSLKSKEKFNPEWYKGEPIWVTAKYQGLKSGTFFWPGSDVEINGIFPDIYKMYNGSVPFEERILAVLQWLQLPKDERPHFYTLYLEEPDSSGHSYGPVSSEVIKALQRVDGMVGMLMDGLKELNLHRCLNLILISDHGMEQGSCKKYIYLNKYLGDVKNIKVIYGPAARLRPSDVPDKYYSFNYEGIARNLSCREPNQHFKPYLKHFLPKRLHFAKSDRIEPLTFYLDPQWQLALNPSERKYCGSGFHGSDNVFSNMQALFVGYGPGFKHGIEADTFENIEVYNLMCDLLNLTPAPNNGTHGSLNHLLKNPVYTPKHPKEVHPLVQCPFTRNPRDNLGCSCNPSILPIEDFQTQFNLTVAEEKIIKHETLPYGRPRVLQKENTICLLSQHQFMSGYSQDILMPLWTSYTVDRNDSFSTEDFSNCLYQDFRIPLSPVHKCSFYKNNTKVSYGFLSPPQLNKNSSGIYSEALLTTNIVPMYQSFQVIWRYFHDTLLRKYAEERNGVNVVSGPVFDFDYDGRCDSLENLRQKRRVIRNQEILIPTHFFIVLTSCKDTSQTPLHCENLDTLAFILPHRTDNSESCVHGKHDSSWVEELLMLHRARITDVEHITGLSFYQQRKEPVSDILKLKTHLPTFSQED
Method in brief: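 Reactions ran 20 min at 37 °C, pH 8.5 Tris buffer with NaCl, CaCl2, ZnCl2, using 300 µM AMP-pNP and 60 ng/well recombinant human ENPP1; inhibitor range 10 µM–30 pM, duplicates.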

[2] = target: T1, ENPP1; test: Indirect quantitation of 2',3'-cGAMP hydrolysis (AMP-Glo Assay kit)
[3] = target: T1, ENPP1; test: Substrate selectivity ratio, inhibition of cGAMP hydrolysis versus ATP hydrolysis; conditions: ratio Ki AMP-pNP / Ki cGAMP
Procedure: The selectivity ratios for inhibition of cGAMP hydrolysis versus ATP hydrolysis were then calculated as follows: […]

[4] = AMP-pNP substrate (ATP analog), Ki from IC50 by Cheng-Prusoff, read-out: ENPP1 Inhibition _AMP-pNP: Ki
[5] = cGAMP substrate, Ki from IC50 by Cheng-Prusoff, read-out: ENPP1 Inhibition -cGAMP: Ki

| Ki [1, 4] [nM] | Ki [2, 5] [nM] | Substrate Selectivity: Ki_AMP-pNP/Ki_cGAMP [3] | Structure (SMILES) | Ki [1] [nM] | Ki [2] [nM] |
| --- | --- | --- | --- | --- | --- |
| 100 to 1000 | < 100 | 42 | COc1ccc2c(N3CCc4cc(NS(N)(=O)=O)ccc43)c(C)cnc2c1 [Example 378, N-(1-(7-methoxy-3-methylquinolin-4-yl)indolin-5-yl)sulfamide] | – | – |
| > 1000 | 100 to 1000 | >49.9 | COc1ccc2c(Oc3ccc(NS(N)(=O)=O)cc3C(F)(F)F)ccnc2c1 [Example 317, N-(4-((7-methoxyquinolin-4-yl)oxy)-3-(trifluoromethyl)phenyl)sulfamide] | – | – |
| 100 to 1000 | < 100 | >28.3 | COc1cc2ncnc(-c3ccc(CN(C4CC4)S(N)(=O)=O)cc3)c2cc1OC [Example 285, N-cyclopropyl-N-(4-(6,7-dimethoxyquinazolin-4-yl)benzyl)sulfamide] | – | – |
| 100 to 1000 | < 100 | 35 | COc1cc2nccc(Oc3ccc(NS(N)(=O)=O)cc3)c2cn1 [Example 330, N-(4-((7-methoxy-1,6-naphthyridin-4-yl)oxy)phenyl)sulfamide] | – | – |
| > 1000 | 100 to 1000 | >153 | COc1ccc2c(-n3cc(Cl)c4cc(NS(N)(=O)=O)ccc43)ccnc2c1 [Example 413, N-(3-chloro-1-(7-methoxyquinolin-4-yl)-1H-indol-5-yl)sulfamide] | – | – |
| > 1000 | < 100 | >44 | COc1ccc2c(-n3cnc(CNS(N)(=O)=O)c3)ccnc2c1 [Example 385, N-((1-(7-methoxyquinolin-4-yl)-1H-imidazol-4-yl)methyl)sulfamide] | – | – |
| > 1000 | 100 to 1000 | >227 | COc1ccc2c(-c3ccc(CCNS(N)(=O)=O)cc3)ccnc2c1 [Example 403, N-(4-(7-methoxyquinolin-4-yl)phenethyl)sulfamide] | – | – |
| < 100 | < 100 | 27.2 | COc1cc2ncc(F)c(-c3ccc4c(c3)CN(S(N)(=O)=O)CC4)c2cc1OC [Example 229, 7-(3-fluoro-6,7-dimethoxyquinolin-4-yl)-3,4-dihydroisoquinoline-2(1H)-sulfonamide] | – | – |
| 100 to 1000 | < 100 | 53.0 | COc1ccc2c(-c3ccc(CNS(N)(=O)=O)cc3)c(C#N)cnc2c1 [Example 244, N-(4-(3-cyano-7-methoxyquinolin-4-yl)benzyl)sulfamide] | – | – |
| > 1000 | < 100 | 55 | COc1ccc2c(Oc3ncc(NS(N)(=O)=O)cc3C)ccnc2c1 [Example 351, N-(6-((7-methoxyquinolin-4-yl)oxy)-5-methylpyridin-3-yl)sulfamide] | – | – |
| > 1000 | < 100 | >133 | COc1ccc2c(N3CCc4cc(NS(N)(=O)=O)ccc43)ncnc2c1 [Example 392, N-(1-(7-methoxyquinazolin-4-yl)indolin-5-yl)sulfamide] | – | – |
| 100 to 1000 | < 100 | >99.7 | COc1ccc2ncc(C#N)c(N3CCC4(CC3)CCN(S(N)(=O)=O)C4)c2c1 [Example 238, 8-(3-cyano-6-methoxyquinolin-4-yl)-2,8-diazaspiro[4.5]decane-2-sulfonamide] | – | – |
| > 1000 | 100 to 1000 | >12.9 | COc1cc2nccc(Oc3ccc(NS(=O)(=O)C4CCC4)cc3)c2cc1OC [Example 261, N-(4-((6,7-dimethoxyquinolin-4-yl)oxy)phenyl)cyclobutanesulfonamide] | – | – |
| 100 to 1000 | < 100 | 27.9 | NS(=O)(=O)N1CCC2(CCN(c3ncnc4ccc(F)cc34)CC2)C1 [Example 288, 8-(6-fluoroquinazolin-4-yl)-2,8-diazaspiro[4.5]decane-2-sulfonamide] | – | – |

Second part, the molecule before the results:

| Structure (SMILES) | Ki [1, 4] [nM] | Ki [2, 5] [nM] | Substrate Selectivity: Ki_AMP-pNP/Ki_cGAMP [3] | Ki [1] [nM] | Ki [2] [nM] |
| --- | --- | --- | --- | --- | --- |
| COc1cc2nccc(N3CCC(CCNS(=O)(=O)N4CCOCC4)CC3)c2cc1OC [Example 147, N-(2-(1-(6,7-dimethoxyquinolin-4-yl)piperidin-4-yl)ethyl)morpholine-4-sulfonamide] | > 1000 | 100 to 1000 | >117 | – | – |
| COc1cc2ncnc(N3CCC(CCNS(N)(=O)=O)CC3)c2cc1OC(C)C [Example 205, N-(2-(1-(6-isopropoxy-7-methoxyquinazolin-4-yl)piperidin-4-yl)ethyl)sulfamide] | > 1000 | 100 to 1000 | > 14.4 | – | – |
| COc1ccc2c(Oc3ccc(NS(N)(=O)=O)c(Cl)c3)ccnc2c1 [Example 75, N-(2-chloro-4-((7-methoxyquinolin-4-yl)oxy)phenyl)sulfamide] | 100 to 1000 | < 100 | 41.3 | – | – |
| COc1cc2c(N3CCC(CCNS(N)(=O)=O)CC3)ncnc2cn1 [Example 189, N-(2-(1-(6-methoxypyrido[3,4-d]pyrimidin-4-yl)piperidin-4-yl)ethyl)sulfamide] | > 1000 | 100 to 1000 | > 27.0 | – | – |
| COc1cc2ncnc(N3CCC(CCNS(=O)(=O)NC(C)=O)CC3)c2cc1OC [Example 200, N-(N-(2-(1-(6,7-dimethoxyquinazolin-4-yl)piperidin-4-yl)ethyl)sulfamoyl)acetamide] | > 1000 | 100 to 1000 | >64.2 | – | – |
| COc1cc2nccc(N3CCC(CCNS(N)(=O)=O)CC3)c2cc1F [Example 220, N-(2-(1-(6-fluoro-7-methoxyquinolin-4-yl)piperidin-4-yl)ethyl)sulfamide] | 100 to 1000 | < 100 | 35.9 | – | – |
| N#Cc1cnc2ccccc2c1N1CCC2(CC1)CCN(S(N)(=O)=O)C2 [Example 167, 8-(3-cyanoquinolin-4-yl) -2,8-diazaspiro [4.5] decane-2-sulfonamide] | 100 to 1000 | < 100 | 10.6 | – | – |
| COc1cc2ncc(C#N)c(Nc3ccc(NS(N)(=O)=O)cc3)c2cc1OC [Example 175, N-(4-((3-cyano-6,7-dimethoxyquinolin-4-yl)amino)phenyl)sulfamide] | > 1000 | < 100 | >63.3 | – | – |
| COc1ccc2c(Oc3ccc(NS(N)(=O)=O)cc3F)ccnc2c1 [Example 71, N-(3-fluoro-4-((7-methoxyquinolin-4-yl)oxy)phenyl)sulfamide] | < 100 | < 100 | 13.3 | – | – |
| COc1cc2nccc(OCc3ccc(NS(N)(=O)=O)cc3)c2cc1OC [Example 191, N-(4-(((6,7-dimethoxyquinolin-4-yl)oxy)methyl)phenyl) sulfamide] | > 1000 | 100 to 1000 | > 25.0 | – | – |
| COc1cc2ncn(-c3ccc(CCNS(N)(=O)=O)cc3)c2cc1OC [Example 217, N-(4-(5,6-dimethoxy-1H-benzo[d]imidazol-1-yl)phenethyl)sulfamide] | > 1000 | 100 to 1000 | > 18.2 | – | – |
| COc1cc2ncnc(N3CCC(CCn4nnc(N)n4)CC3)c2cc1OC [Example 195, 2-(2-(1-(6,7-dimethoxyquinazolin-4-yl)piperidin-4-yl)ethyl)-2H-tetrazol-5-amine] | > 1000 | 100 to 1000 | > 45.7 | – | – |
| Cn1c(=O)[nH]c2ncnc(N3CCC(CCNS(N)(=O)=O)CC3)c21 [Example 141, N-(2-(1-(7-methyl-8-oxo-8,9-dihydro-7H-purin-6-yl)piperidin-4-yl)ethyl)sulfamide] | > 1000 | < 100 | >929 | – | – |
| COc1cc2ncnc(N3CCN(C(=O)CNS(N)(=O)=O)CC3)c2cc1OC [Example 52, N-(2-(4-(6,7-dimethoxyquinazolin-4-yl)piperazin-1-yl)-2-oxoethyl)sulfamide] | – | – | 58.1 | 100 to 1000 | < 100 |
| COc1cc2ncnc(NCCc3ccc(NS(N)(=O)=O)cc3)c2cc1OC [Example 156, N-(4-(2-((6,7-dimethoxyquinazolin-4-yl)amino)ethyl)phenyl) sulfamide] | 100 to 1000 | < 100 | 23.3 | – | – |
